Peptide text beside a SMILES is read from it. * marks the point of attachment. Cbz = O=C(OCc1ccccc1)*; CH2F = FC*
Assays:
Format in all cases: cell-based
[1] = test system: cleaved PARP; experiment: Western analysis of PARP cleavage (early apoptosis marker); settings: HEY; for PARP cleavage in As2O3-treated cells with added inhibitor: 18 hours
Experimental: (§1) Proteins were resolved on an 8%, 12%, or 15% SDS-PAGE gel (as appropriate) and electrophoretically transferred to polyvinyldifluoride (PVDF) membranes. After blocking with 5% (w/v) milk in TBST (Tris-Buffered Saline containing 0.1% Tween-20) for one hour at room temperature, membranes were incubated with primary antibodies (at appropriate dilution) overnight at 4° C., followed by extensive washing and incubation for 1 hour with the appropriate horseradish peroxidase-conjugated secondary antibodies (BioRad, Hercules, Calif.). Blots were washed extensively. A rabbit polyclonal EVI1 antibody was obtained (1:3000 dilution, St. Jude's Children's Hospital, Memphis, Tenn.). SnoN rabbit polyclonal (1:1000 dilution), PML, and p21 SMURF2 rabbit polyclonal (1:500 dilution), MRP1 mouse monoclonal (1:500 dilution) and GAPDH mouse monoclonal (1:250 dilution) antibodies were obtained from Santa Cruz Biotechnology (Santa Cruz, Calif.). TGFβRII rabbit polyclonal (1:1000 dilution) antibody was obtained from Strategic Diagnostics (Newark, Del.). Smad2/3 rabbit polyclonal (1:1000 dilution), Beclin-1 rabbit polyclonal (1:1000 dilution), AKT rabbit polyclonal (1:1000 dilution), TAK1 rabbit polyclonal (1:1000 dilution), PARP rabbit polyclonal (1:1000 dilution), Beclin-1 rabbit polyclonal (1:1000 dilution), caspase-3 rabbit polyclonal (1:1000) which detects the pro-caspase form, and ATG5 rabbit polyclonal (1:1000 dilution), LC3-II rabbit polyclonal (1:1000 dilution) antibodies were obtained from Cell Signaling Technology (Danvers, Mass.). The HSP27 mouse monoclonal (1:1000 dilution) antibody was obtained from Stressgen (Ann Arbor, Mich.). Blots were developed using chemiluminescence substrates (Amersham Piscataway, N.J. or BioRad, Hercules, Calif.). Monoclonal PAI-1 antibody was obtained from BD Pharmingen. PSMAD2, total SMAD2/3, p-ERK, p-AKT, and total AKT antibodies were obtained from Cell Signaling Technology. A monoclonal antibody against Arkadia was obtained from Abnova (Taiwan).
(§2) Densitometric analysis was performed using the HP Scanjet 5590 and the Image J program (Image Processing and Analysis in Java, NIH Image Software). Bands were selected and the intensity values were normalized to those for GAPDH. The values are presented as fold-changes relative to control siRNA treated cells.
(§3) The clinical inhibitors As2O3, geldanamycin (17-AAG) (dissolved in dimethylsulfoxide [DMSO]), and MG132 (dissolved in DMSO) were obtained from Sigma-Aldrich (St. Louis, Mo.), Fisher Scientific (Pittsburgh, Pa.), and Alexis Biochemicals (Farmingdale, N.Y.), respectively. N-acetyl-L-cysteine (NAC; dissolved in media) and Bortezomib (PS-341; dissolved in DMSO) were obtained from Fisher Scientific. 3-Methyladenine (3-MA; dissolved in media) was obtained from MP Biomedicals (Solon, Ohio). Tiron (4,5-Dihydroxy-1,3-benzenedisulfonic acid, dissolved in media) was obtained from Fisher Scientific. zVAD-fmk (dissolved in DMSO) and bafilomycin A (dissolved in DMSO) was obtained from Axxora LLC (San Diego, Calif.). Bovine catalase was obtained from Sigma-Aldrich. HBED and Mn TBAP was obtained from ENZO Life Sciences (Farmingdale, N.Y.). Ovarian cells were plated in 6-well plates at 250,000 cells per well and grown in complete medium. The following day, the cells were treated with 5 μM MG132, As2O3 (between 2-50 μM), 17-AAG (between 2-50 μM), NAC (Fisher Scientific, between 25 μM to 1 mM), Tiron (between 25 μM to 1 mM), 3-MA (0.1 mM to 10 mM), or zVAD-fmk (25 μM to 100 μM). For control cells, DMSO (a final concentration of <0.5%) was added to compare appropriately to drugs dissolved in DMSO. After the appropriate incubation time (6 or 18 hours), cell lysates were collected, protein quantified, and SDS-PAGE/western analysis was performed. In addition, for selected studies, RNA was isolated, quantified, and used for qPCR analysis.

[2] = test system: SnoN; experiment: Western analysis of SnoN protein levels
Experimental: as §1, §2
as §3, with “The following day, the cells were treated with 5 μM MG132, As2O3 (between 2-50 μM), 17-AAG (between 2-50 μM), NAC (Fisher Scientific, between 25 μM to 1 mM), Tiron (between 25 μM to 1 mM), 3-MA (0.1 mM to 10 mM), or zVAD-fmk (25 μM to 100 μM).” left out

[3] = test system: EVI1 forms (MDS1/EVI1, EVI1, EVI1^Del190-515)
Experimental: as §1, §2, §3

[4] = test system: TAK1, SMAD2/3, TGFβRII, AKT, phospho-SMAD2; experiment: Western analysis of other TGFβ signaling mediators
Experimental: as §1, §2, §3

[5] = test system: SnoN RNA; experiment: qPCR of SnoN RNA levels in ovarian cell lines; parameters: reduction of basal SnoN RNA levels / effect on basal SnoN RNA levels: unit of the concentration uncertain
Experimental: RNA was isolated using the RNeasy Mini Kit (Qiagen, Valencia, Calif.) from normal, benign, stage I-IV ovarian patient samples and quantitative PCR was performed. A one-step RT-PCR Taqman master mix from Applied Biosystems (Foster City, Calif.) and primers for genes in the 3q26.2 amplicon were obtained using Genebank sequences as well as from Assays on Demand (Hs00180524_m1 (SnoN/SkiL)), with the following primers and probe sets.
Primers/probe sequences for SnoN (Hs00180524_m1), TGFβRII (Hs00234253_m1), and LC3 (Hs00261291_m1) were obtained from Applied Biosystems (Assays by Design).
mRNA levels were determined using the One-Step-Plus Applied Biosystems Detection System or ABI PRISM 7700 Sequence Detection System using β-actin as a reference. PCR conditions were as follows: stage I: 48° C. for 30 min; stage II: 95° C. for 10 min; stage III: [40 cycles] 95° C. for 15 s followed by 60° C. for 1 min Using the correlative method, RNA-fold change in expression was calculated as Ct of gene—Ct of β-actin to generate ΔCt from which ΔCt of the normal sample was subtracted. These values were then converted to log2 values.
The clinical inhibitors As2O3, geldanamycin (17-AAG) (dissolved in dimethylsulfoxide [DMSO]), and MG132 (dissolved in DMSO) were obtained from Sigma-Aldrich (St. Louis, Mo.), Fisher Scientific (Pittsburgh, Pa.), and Alexis Biochemicals (Farmingdale, N.Y.), respectively. N-acetyl-L-cysteine (NAC; dissolved in media) and Bortezomib (PS-341; dissolved in DMSO) were obtained from Fisher Scientific. 3-Methyladenine (3-MA; dissolved in media) was obtained from MP Biomedicals (Solon, Ohio). Tiron (4,5-Dihydroxy-1,3-benzenedisulfonic acid, dissolved in media) was obtained from Fisher Scientific. zVAD-fmk (dissolved in DMSO) and bafilomycin A (dissolved in DMSO) was obtained from Axxora LLC (San Diego, Calif.). […] After the appropriate incubation time (6 or 18 hours), cell lysates were collected, protein quantified, and SDS-PAGE/western analysis was performed. In addition, for selected studies, RNA was isolated, quantified, and used for qPCR analysis.

[6] = test system: ovarian cancer cells; experiment: Cell titer glo cell viability assay; settings: 25 μM, 18 hour treatment, relative to control cells
Experimental: Measurement of Intracellular ATP Levels. T80, HEY, and SKOV3 ovarian cells were seeded in triplicate for each treatment group at 5000 cells per well into each well of a 96 well white-opaque plate. Following overnight cell attachment, cells were treated for 18 hours with appropriate doses of arsenic trioxide or geldanamycin (0 mM, 2 μM, 5 μM, 10 μM, 25 μM, and 50 μM). Following termination of the cell treatments, the media was removed from the wells and replaced with 100 μl of phosphate-buffered saline (PBS). The plate was equilibrated to room temperature, 100 μl of Cell-Titer Glo reagent (Promega, Madison, Wis.) was added, and mixed on a plate shaker for 2 minutes. The plate was further incubated for 10 minutes at room temperature prior to reading with a Biotek luminescence plate reader to obtain relative light unit (RLU) measurements. Empty wells (containing no cells) were utilized as a correction for background luminescence. All experiments were performed in triplicate.

[7] = test system: HSP27; experiment: Western analysis of HSP27; settings: HEY, 18 hours
Experimental: as §1, with “The HSP27 mouse monoclonal (1:1000 dilution) antibody was obtained from Stressgen (Ann Arbor, Mich.). Blots were developed using chemiluminescence substrates (Amersham Piscataway, N.J. or BioRad, Hercules, Calif.). Monoclonal PAI-1 antibody was obtained from BD Pharmingen. PSMAD2, total SMAD2/3, p-ERK, p-AKT, and total AKT antibodies were obtained from Cell Signaling Technology. A monoclonal antibody against Arkadia was obtained from Abnova (Taiwan).” left out
The clinical inhibitors As2O3, geldanamycin (17-AAG) (dissolved in dimethylsulfoxide [DMSO]), and MG132 (dissolved in DMSO) were obtained from Sigma-Aldrich (St. Louis, Mo.), Fisher Scientific (Pittsburgh, Pa.), and Alexis Biochemicals (Farmingdale, N.Y.), respectively. […] After the appropriate incubation time (6 or 18 hours), cell lysates were collected, protein quantified, and SDS-PAGE/western analysis was performed. In addition, for selected studies, RNA was isolated, quantified, and used for qPCR analysis.

[8] = test system: LC3-I/LC3-II, autophagosomes; experiment: Autophagy: LC3 western, EGFP-LC3 fluorescence, TEM of autophagosomes; settings: HEY, 18 hours
Experimental: as §1
HEY cells were seeded onto glass coverslips and allowed to adhere following overnight incubation. The cells were then transiently transfected with EGFP-LC3 (Addgene, Cambridge, Mass.) and allowed to recover for 24 hours. The cells were treated at the appropriate concentrations of As2O3 in the absence or presence of 3-MA (5 and 10 mM), for 18 hours. The cells were then fixed in 4% paraformaldehyde in PBS for 30 minutes at room temperature, washed twice in PBS, and blocked for 1 hour at room temperature in PBS containing 5% goat serum and 0.1% Triton X-100. The cells were counterstained with Hoescht nuclear stain, washed 3 times for 5 minutes in PBS, anti-Fade containing DAPI nuclear stain was then applied, and coverslips mounted onto glass slides and viewed under a Zeiss inverted fluorescence microscope (Moffitt Cancer Center Microscopy Core).
Autophagy induction was analyzed using electron microscopy. […] Cells were then fixed in 2.5% glutaraldehyde in 0.1M phosphate buffer overnight at 4° C. Following rinsing in buffer, cells were scraped from the culture flasks, washed, and then post-fixed in 1% osmium tetroxide in buffer. After dehydration in a graded series of acetone, the cells were embedded in Embed 812 epoxy resin. Thin sections (70 nm) were cut on an Ultramicrotome. The sections on the grids were stained with uranyl acetate and lead citrate. The sections were examined on a Transmission Electron Microscope (Morgagni 268D).

[9] = HEY and OVCA429, 18 hours, increasing doses

EVI1 siRNA: Dharmacon custom siRNA against EVI1 Exon VII, SEQ ID 6 (ACUACGUCUUCCUUAAAUAUU; listed as RNA, chemistry not given here)
effect on As2O3-induced PARP cleavage ([1]; As2O3-treated): did not dramatically alter | reduction of SnoN levels ([2]; absence and presence of As2O3 (6 and 18 h, 50 μM), HEY): > 50%

CC(C)C[C@H](NC(=O)[C@H](Cc1ccccc1)NC(=O)c1cnccn1)B(O)O [PS-341, Bortezomib]
EVI1 protein in As2O3-treated cells with added proteosome inhibitor ([3]; combination with As2O3, HEY, OVCA429): recovered | SnoN protein in drug-treated cells with added proteosome inhibitor ([2]; combination with As2O3): further increased | TGFβRII protein in drug-treated cells with added proteosome inhibitor ([4]; combination with As2O3 (MG132: 6 hour drug treatment)): did not appear to be recovered

O=c1cc(N2CCOCC2)oc2c(-c3ccccc3)cccc12 [LY294002]
reduction of basal SnoN RNA levels ([5]; 50 (unit uncertain), 12 h post-treatment, OVCA429, HEY, T29, T80): 50%

17-allylaminogeldanamycin [17-AAG]
reduction of cell growth (cellular viability) [6]: 63% | MDS1/EVI1 and EVI1^Del190-515 protein ([3]; 5 μM 17-AAG, 18 hour): reduced | wild type EVI1 protein ([3]; 5 μM 17-AAG, 18 hour): not dramatically affected | protein levels of EVI1 forms [3, 9]: slight decrease | SnoN/SkiL protein levels [2, 9]: slight decrease | TGFβRII, SMAD2/3, and AKT protein [4, 9]: more marked reductions

COC(=O)C[C@H](NC(=O)[C@H](C)NC(=O)[C@@H](NC(=O)OCc1ccccc1)C(C)C)C(=O)CF [zVAD-fmk] (Cbz-Val-Ala-Asp(OMe)-CH2F)
PARP cleavage in As2O3-treated cells with added inhibitor [1]: dramatically reduced | HSP27 levels in As2O3-treated cells with added inhibitor [7]: slightly decreased | SnoN levels in As2O3-treated cells with added inhibitor ([2]; HEY, 18 hours): remained unchanged | LC3 levels (LC3-II/LC3-I) in As2O3-treated cells with added inhibitor [8]: remained unchanged

N#CC(=C(/N)Sc1ccccc1N)/C(C#N)=C(\N)Sc1ccccc1N [U0126]
effect on basal SnoN RNA levels ([5]; 25 (unit uncertain), data not shown): not significant

TGF-β
SnoN protein levels in ovarian cancer cells ([2]; SKOV3, OVCA429, OVCAR8, HEY, between 1 and 3 h post stimulation): dramatic increase | SnoN protein levels in immortalized normal ovarian epithelial cells ([2]; T29 and T80, between 15 min and 1 h post-TGF-β stimulation (50 pM)): dramatic decrease | phospho-SMAD2 levels ([4]; 1 h post stimulation, T29, T80, SKOV3, HEY, OVCA429, OVCAR8): markedly elevated

Cn1cnc(N)c2ncnc1-2 [3-MA, 3-Methyladenine]
PARP cleavage in As2O3-treated cells with added inhibitor [1]: further increased | HSP27 levels in As2O3-treated cells with added inhibitor [7]: reduced dramatically | SnoN levels in As2O3-treated cells with added inhibitor ([2]; HEY, 18 hours): not dramatically altered | LC3 levels (LC3-II/LC3-I) in As2O3-treated cells with added inhibitor [8]: reduced

CO/C1=C\C(C)=C\[C@@H](C)[C@@H](O)[C@@H](C)C/C(C)=C/C=C/[C@H](OC)[C@@H]([C@@H](C)[C@@H](O)[C@H](C)[C@@]2(O)C[C@@H](O)[C@H](C)[C@@H](C(C)C)O2)OC1=O [Bafilomycin A1]
PARP cleavage in As2O3-treated cells with added inhibitor [1]: increased | SnoN levels in As2O3-treated cells with added inhibitor ([2]; HEY, 18 hours): slightly reduced | LC3 levels (LC3-II/LC3-I) in As2O3-treated cells with added inhibitor [8]: increased

CC(=O)N[C@@H](CS)C(=O)O [NAC, N-acetyl-L-cysteine]
SnoN expression in As2O3-treated cells with increasing doses of NAC ([2]; HEY, 18 hours): markedly reduced | EVI1, TAK1, and TGFβRII protein expression in As2O3-treated cells with NAC ([4]; HEY, 18 hours): recovery

Reference: patent publication US8211646B1, “Methods of treating ovarian cancer by modulating SnoN” (University of South Florida, priority 2008, dated 2012)
